According to patent publication US12227509B2, “Dihydropyrazolopyrazinone derivative having MGAT2 inhibitory activity” (Shionogi & Co., Ltd., priority 2019, dated 2025):

How the values were obtained:
CYP1A2 = CYP1A2 (Homo sapiens (Human), UniProt P05177); experiment: CYP inhibition test, CYP1A2; type: in vitro ADME; settings: pooled human liver microsomes; 7-ethoxyresorufin O-deethylation; given as 'five kinds'
From the text: (§1) Using commercially available pooled human hepatic microsome, and employing, as markers, 7-ethoxyresorufin O-deethylation (CYP1A2), tolbutamide methyl-hydroxylation (CYP2C9), mephenytoin 4'-hydroxylation (CYP2C19), dextromethorphan 0-demethylation (CYP2D6), and terfenadine hydroxylation (CYP3A4) as typical substrate metabolism reactions of human main five CYP enzyme forms (CYP1A2, 2C9, 2C19, 2D6, 3A4), an inhibitory degree of each metabolite production amount by the compound of the present invention was assessed. The reaction conditions are as follows: substrate, 0.5 μmol/L ethoxyresorufin (CYP1A2), 100 μmol/L tolbutamide (CYP2C9), 50 μmol/L S-mephenitoin (CYP2C19), 5 μmol/L dextromethorphan (CYP2D6), 1 μmol/L terfenedine (CYP3A4); reaction time, 15 minutes; reaction temperature, 37° C.; enzyme, pooled human liver microsomes 0.2 mg protein/mL; concentrations of the compound of the present invention, 1, 5, 10, 20 μmol/L (four points). As a reaction solution, each five kinds of substrates, human liver microsomes, or compound of the present invention in 50 mmol/L Hepes buffer were added to a 96-well plate at the composition as described above, and NADPH, as a cofactor was added to initiate metabolism reactions. After the incubation at 37° C. for 15 minutes, a methanol/acetonitrile=1/[…]) solution was added to stop the reaction. After the centrifugation at 3000 rpm for 15 minutes, resorufin (CYP1A2 metabolite) in the supernatant was quantified by a fluorescent multilabel counter or LC/MS/MS, and tolbutamide hydroxide (CYP2C9 metabolite), mephenytoin 4' hydroxide (CYP2C19 metabolite), dextrorphan (CYP2D6 metabolite), and terfenadine alcohol (CYP3A4 metabolite) were quantified by LC/MS/MS. Addition of only DMSO being a solvent dissolving a drug to a reaction system was adopted as a control (100%). Remaining activity (%) was calculated. IC50 was calculated by reverse presumption by a logistic model using the concentration and an inhibition rate.

hERG (IKr) = hERG (IKr) (Homo sapiens (Human), UniProt Q12809); experiment: hERG test; type: cell-based; settings: CHO cells expressing hERG channel, pH 7.4, 10 μmol/L of test compound, read-out: % inhibition of hERG tail peak current (IKr)
Chain of hERG (IKr) (Q12809 whole entry): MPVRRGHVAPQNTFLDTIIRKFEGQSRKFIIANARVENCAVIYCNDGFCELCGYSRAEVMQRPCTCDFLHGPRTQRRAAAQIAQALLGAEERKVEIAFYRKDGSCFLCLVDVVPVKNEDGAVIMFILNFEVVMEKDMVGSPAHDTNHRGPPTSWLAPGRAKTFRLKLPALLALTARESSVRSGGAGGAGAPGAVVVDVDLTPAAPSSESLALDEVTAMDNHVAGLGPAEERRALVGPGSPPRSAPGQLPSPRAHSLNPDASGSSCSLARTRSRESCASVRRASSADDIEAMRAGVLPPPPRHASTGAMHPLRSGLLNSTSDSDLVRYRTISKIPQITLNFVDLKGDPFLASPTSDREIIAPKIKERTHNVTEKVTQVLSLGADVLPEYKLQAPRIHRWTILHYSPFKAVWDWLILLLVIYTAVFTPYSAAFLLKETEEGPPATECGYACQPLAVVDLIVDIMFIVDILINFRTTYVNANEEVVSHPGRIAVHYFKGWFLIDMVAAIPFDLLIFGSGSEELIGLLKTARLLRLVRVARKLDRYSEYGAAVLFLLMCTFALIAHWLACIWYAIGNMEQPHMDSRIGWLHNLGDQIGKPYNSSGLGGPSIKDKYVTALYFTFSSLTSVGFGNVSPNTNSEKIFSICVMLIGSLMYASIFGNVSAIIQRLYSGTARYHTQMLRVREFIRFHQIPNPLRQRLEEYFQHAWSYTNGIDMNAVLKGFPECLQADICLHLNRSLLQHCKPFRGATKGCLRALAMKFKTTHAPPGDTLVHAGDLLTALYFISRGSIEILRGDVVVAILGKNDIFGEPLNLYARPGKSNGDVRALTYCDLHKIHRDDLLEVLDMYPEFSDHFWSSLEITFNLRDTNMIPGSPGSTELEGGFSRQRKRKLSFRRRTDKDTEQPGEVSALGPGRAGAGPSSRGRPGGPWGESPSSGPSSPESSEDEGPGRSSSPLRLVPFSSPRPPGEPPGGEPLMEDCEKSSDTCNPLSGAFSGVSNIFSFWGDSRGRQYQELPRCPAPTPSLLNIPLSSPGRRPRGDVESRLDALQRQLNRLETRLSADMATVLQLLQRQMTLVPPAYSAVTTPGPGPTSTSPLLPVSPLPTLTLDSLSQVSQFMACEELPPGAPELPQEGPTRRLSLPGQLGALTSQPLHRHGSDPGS
From the text: For the purpose of assessing risk of an electrocardiogram QT interval prolongation of the compound of the present invention, effects of the compound of the present invention on delayed rectifier K^+ current (IKr), which plays an important role in the ventricular repolarization process, was studied using CHO cells expressing human ether-a-go-go related gene (hERG) channel.
After a cell was retained at a membrane potential of −80 mV by whole cell patch clamp method using an automated patch clamp system (QPatch; Sophion BIoscience A/S), IKr induced by application of a leak potential of −50 mV followed by depolarization pulse stimulation at +20 mV for 2 seconds and, further, repolarization pulse stimulation at −50 mV for 2 seconds, was recorded. […] From the recording IKr, an absolute value of the tail peak current was measured based on the current value at the resting membrane potential using analysis software (Falster Patch; Sophion Bioscience A/S). Further, the % inhibition of tail peak current for the compound of the present invention relative to the tail peak current after application of the vehicle is calculated to assess influence of the compound of the present invention on IKr.

[1] = Metabolism stability test (human liver microsomes); type: in vitro ADME; settings: compound concentration 0.5 μmol/L, 37° C., 30 minutes, NADPH
Procedure: Using commercially available pooled human hepatic microsomes, the compound of the present invention was reacted for a constant time, a remaining rate was calculated by comparing a reacted sample and an unreacted sample, thereby, a degree of metabolism of the compound of the present invention in liver was assessed.
A reaction was performed (oxidative reaction) at 37° C. for 0 minute or 30 minutes in the presence of 1 mmol/L NADPH in 0.2 mL of a buffer (50 mmol/L Tris-HCl pH 7.4, 150 mmol/L potassium chloride, 10 mmol/L magnesium chloride) containing 0.5 mg protein/mL of human liver microsomes. After the reaction, 50 μL of the reaction solution was added to 100 μL of a methanol/acetonitrile=1/1 (v/v) solution, mixed and centrifuged at 3000 rpm for 15 minutes. The compound of the present invention in the supernatant was quantified by LC/MS/MS, and a remaining amount of the compound of the present invention after the reaction was calculated, letting a compound amount at 0 minute reaction time to be 100%.

CYP2C9 = CYP2C9 (Homo sapiens (Human), UniProt P11712); experiment: CYP inhibition test, CYP2C9; type: in vitro ADME; settings: pooled human liver microsomes; tolbutamide methyl-hydroxylation; given as 'five kinds'
Chain of CYP2C9 (P11712 whole entry): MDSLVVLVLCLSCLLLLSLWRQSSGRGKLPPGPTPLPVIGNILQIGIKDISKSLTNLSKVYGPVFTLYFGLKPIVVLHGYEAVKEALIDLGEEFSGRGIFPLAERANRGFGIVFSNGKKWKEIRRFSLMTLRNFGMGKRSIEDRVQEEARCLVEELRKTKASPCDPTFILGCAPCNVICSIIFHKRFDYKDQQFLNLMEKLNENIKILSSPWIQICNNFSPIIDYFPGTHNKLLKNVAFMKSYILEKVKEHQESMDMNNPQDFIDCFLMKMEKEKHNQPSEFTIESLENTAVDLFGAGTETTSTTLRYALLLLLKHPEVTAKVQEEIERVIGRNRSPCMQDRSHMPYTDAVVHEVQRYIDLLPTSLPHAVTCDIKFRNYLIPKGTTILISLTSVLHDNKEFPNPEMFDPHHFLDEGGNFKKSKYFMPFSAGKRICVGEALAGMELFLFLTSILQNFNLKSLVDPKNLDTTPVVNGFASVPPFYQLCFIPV
From the text: as §1

CYP3A4 [2] = target: T1, CYP3A4 (Homo sapiens (Human), UniProt P08684); experiment: CYP inhibition test, CYP3A4; type: in vitro ADME; settings: pooled human liver microsomes; terfenadine hydroxylation; given as 'five kinds'
T1 sequence (P08684 whole entry): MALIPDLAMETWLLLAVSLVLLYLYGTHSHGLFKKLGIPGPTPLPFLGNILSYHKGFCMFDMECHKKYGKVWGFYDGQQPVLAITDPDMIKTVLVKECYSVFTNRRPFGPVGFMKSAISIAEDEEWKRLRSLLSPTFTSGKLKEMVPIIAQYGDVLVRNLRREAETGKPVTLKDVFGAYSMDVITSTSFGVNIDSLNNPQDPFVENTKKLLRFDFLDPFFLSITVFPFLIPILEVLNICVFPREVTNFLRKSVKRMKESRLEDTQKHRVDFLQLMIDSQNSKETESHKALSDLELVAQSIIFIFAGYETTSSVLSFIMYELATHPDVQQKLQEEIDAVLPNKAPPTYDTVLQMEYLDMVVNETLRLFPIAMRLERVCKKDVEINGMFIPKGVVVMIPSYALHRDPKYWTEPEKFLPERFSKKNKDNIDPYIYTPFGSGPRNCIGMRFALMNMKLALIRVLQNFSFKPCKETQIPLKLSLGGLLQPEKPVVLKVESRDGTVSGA
From the text: as §1

CYP3A4 [3] = target: T1, CYP3A4; experiment: CYP3A4 (MDZ) MBI test; type: in vitro ADME; settings: pooled human liver microsomes; midazolam 1-hydroxylation; preincubation 0 vs 30 min
Procedure: CYP3A4 (MDZ) MBI test is a test of investigating mechanism based inhibition (MBI) potential on CYP3A4 by the enhancement of inhibitory degree of a metabolic reaction caused by the compound of the present invention. CYP3A4 inhibition was evaluated using pooled human liver microsomes by 1-hydroxylation reaction of midazolam (MDZ) as a marker reaction.
The reaction conditions are as follows: substrate, 10 μmol/L MDZ; pre-reaction time, 0 or 30 minutes; substrate reaction time, 2 minutes; reaction temperature, 37° C.; protein content of pooled human liver microsomes, at pre-reaction time 0.5 mg/mL, at reaction time 0.05 mg/mL (at 10-fold dilution); concentrations of the compound of the present invention, at pre-reaction time 1, 5, 10, 20 μmol/L (four points).
Pooled human liver microsomes and a solution of the compound of the present invention in K-Pi buffer (pH 7.4) as a pre-reaction solution were added to a 96-well plate at the composition of the pre-reaction. A part of pre-reaction solution was transferred to another 96-well plate, and 1/10 diluted by K-Pi buffer containing a substrate. NADPH as a co-factor was added to initiate a reaction as a marker reaction (without pre-reaction). After a predetermined time of a reaction, methanol/acetonitrile=1/1 (V/V) solution was added to stop the reaction. In addition, NADPH was added to a remaining pre-reaction solution to initiate a pre-reaction (with pre-reaction). After a predetermined time of a pre-reaction, a part was transferred to another plate, and 1/10 diluted by K-Pi buffer containing a substrate to initiate a reaction as a marker reaction. After a predetermined time of a reaction, methanol/acetonitrile=1/1 (V/V) solution was added in order to stop the reaction. The plate on which each index reaction had been performed was centrifuged at 3000 rpm for 15 minutes, and thereafter 1-hydroxylated midazolam in the supernatant was quantified by LC/MS/MS.
The sample adding DMSO as a solvent to a reaction system instead of a solution dissolving the compound of the present invention was adopted as a control (100%). Remaining activity (%) was calculated at each concentration of the compound of the present invention compared to a control, and IC value was calculated by reverse-presumption by a logistic model using a concentration and an inhibition rate. IC at Preincubation 0 min/IC at Preincubation 30 min was defined as a value of Shifted IC, and a case that Shifted IC was 1.5 or more was regarded as Positive, and a case that Shifted IC was 1.0 or less was regarded as Negative.

CYP2D6 = CYP2D6 (Homo sapiens (Human), UniProt P10635); experiment: CYP inhibition test, CYP2D6; type: in vitro ADME; settings: pooled human liver microsomes; dextromethorphan O-demethylation; given as 'five kinds'
Chain of CYP2D6 (P10635 whole entry): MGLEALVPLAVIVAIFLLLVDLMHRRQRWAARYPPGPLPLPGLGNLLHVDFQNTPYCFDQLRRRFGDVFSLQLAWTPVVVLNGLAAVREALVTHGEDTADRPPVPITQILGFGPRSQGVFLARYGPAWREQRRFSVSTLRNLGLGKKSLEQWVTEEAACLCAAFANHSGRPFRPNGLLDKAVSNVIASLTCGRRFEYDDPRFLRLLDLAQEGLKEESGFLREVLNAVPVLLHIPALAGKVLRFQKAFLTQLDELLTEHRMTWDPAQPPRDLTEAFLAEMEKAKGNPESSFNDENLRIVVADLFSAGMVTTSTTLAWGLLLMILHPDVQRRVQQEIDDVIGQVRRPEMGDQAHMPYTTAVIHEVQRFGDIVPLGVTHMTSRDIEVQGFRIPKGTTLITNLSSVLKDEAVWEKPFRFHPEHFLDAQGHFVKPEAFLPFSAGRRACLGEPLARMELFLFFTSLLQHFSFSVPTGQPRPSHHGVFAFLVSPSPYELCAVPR
From the text: as §1

CYP2C19 = CYP2C19 (Homo sapiens (Human), UniProt P33261); experiment: CYP inhibition test, CYP2C19; type: in vitro ADME; settings: pooled human liver microsomes; mephenytoin 4′-hydroxylation; given as 'five kinds'
Chain of CYP2C19 (P33261 whole entry): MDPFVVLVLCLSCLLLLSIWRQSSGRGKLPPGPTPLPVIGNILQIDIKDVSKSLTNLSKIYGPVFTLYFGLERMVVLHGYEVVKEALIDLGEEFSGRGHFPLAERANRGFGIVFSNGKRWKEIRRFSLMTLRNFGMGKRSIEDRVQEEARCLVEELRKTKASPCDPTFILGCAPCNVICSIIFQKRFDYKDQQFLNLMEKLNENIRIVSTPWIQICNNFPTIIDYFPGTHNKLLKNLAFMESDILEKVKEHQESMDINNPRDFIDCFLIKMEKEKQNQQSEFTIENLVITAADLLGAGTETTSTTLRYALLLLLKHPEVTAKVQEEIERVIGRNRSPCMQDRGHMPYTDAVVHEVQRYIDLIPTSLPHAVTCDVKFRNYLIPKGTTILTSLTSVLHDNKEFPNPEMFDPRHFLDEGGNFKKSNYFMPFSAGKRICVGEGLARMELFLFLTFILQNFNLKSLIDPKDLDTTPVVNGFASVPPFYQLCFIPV
From the text: as §1

[4] = Solubility test (1% DMSO addition, pH 6.8 artificial intestinal juice); type: physicochemical; settings: kinetic from dmso stock, 16 hours at 25° C.
Procedure: The solubility of the compound of the present invention was determined under 1% DMSO addition conditions. 10 mmol/L solution of the compound was prepared with DMSO, and 6 μL of the solution of the compound of the present invention was added to 594 μL of pH 6.8 artificial intestinal juice (118 mL of 0.2 mol/L NaOH test solution and water were added to 250 mL of 0.2 mol/L potassium dihydrogen phosphate test solution to reach 1000 mL). The mixture was left standing for 16 hours at 25° C., and the mixture was vacuum-filtered. The filtrate was two-fold diluted with methanol/water=1/1 (V/V), and the compound concentration in the filtrate was measured with HPLC or LC/MS/MS by the absolute calibration method. The dilution concentration and the dilution solvent were changed as necessary.

[5] = BA test (oral absorption); type: in vivo; settings: plasma; mice or SD rats; from AUCs of oral and intravenous administration
Procedure: Materials and methods for experiments to evaluate oral absorption
(1) Animals: the mice or SD rats were used.
(2) Breeding conditions: the mice or SD rats were allowed to freely take solid food and sterilized tap water.
(3) Setting of dosage and grouping: Oral administration and intravenous administration were performed with a predetermined dosage. Grouping was set as below. (dosage changed per compound)
Oral administration: 1 to 30 mg/kg (n=2 to 3)
Intravenous administration: 0.5 to 10 mg/kg (n=2 to 3)
(4) Preparation of administration solution: Oral administration was performed in the form of a suspension or a solution. Intravenous administration was performed after solubilization.
(5) Routes of administration: Oral administration was performed mandatory into the stomach by oral sonde. Intravenous administration was performed from caudal vein or femoral vein by syringes with needle.
(6) Evaluation items: blood was collected over time, and the plasma concentration of the compound of the present invention was measured by LC/MS/MS.
(7) Statistical analysis: regarding the transition of the plasma concentration of the compound of the present invention, the area under the plasma concentration-time curve (AUC) was calculated by non-linear least squares program WinNonlin (registered trademark), and the bioavailability (BA) of the compound of the present invention was calculated from the AUCs of the oral administration group and intravenous administration group.

Chain of CYP1A2 (P05177 whole entry): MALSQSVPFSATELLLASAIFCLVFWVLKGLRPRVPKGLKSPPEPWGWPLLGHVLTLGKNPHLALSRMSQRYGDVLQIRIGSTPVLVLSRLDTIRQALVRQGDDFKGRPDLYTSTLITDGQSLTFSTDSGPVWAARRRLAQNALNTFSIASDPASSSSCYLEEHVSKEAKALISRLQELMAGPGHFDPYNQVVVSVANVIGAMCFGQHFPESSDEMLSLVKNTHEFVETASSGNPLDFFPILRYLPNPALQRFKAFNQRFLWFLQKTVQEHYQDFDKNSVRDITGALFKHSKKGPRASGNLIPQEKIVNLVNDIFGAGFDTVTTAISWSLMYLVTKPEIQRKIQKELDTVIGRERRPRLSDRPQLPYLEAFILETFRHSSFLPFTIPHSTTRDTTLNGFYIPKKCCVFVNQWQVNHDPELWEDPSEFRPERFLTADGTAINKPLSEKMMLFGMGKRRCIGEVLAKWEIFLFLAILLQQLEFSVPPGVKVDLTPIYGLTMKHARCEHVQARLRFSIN

Row | IC50 (CYP1A2) [µM] | Remaining rate [1] [%] | IC50 (CYP2C9) [µM] | IC50 (CYP3A4 [2]) [µM] | IC50 (CYP2D6) [µM] | IC50 (CYP2C19) [µM] | solubility at 16 h [4] [µM] | bioavailability [5] [%] | SMILES | inhibition at 10 min, 10 μmol/L (hERG (IKr)) [%] | CYP3A4 (MDZ) MBI (Shifted IC judgement) (CYP3A4 [3])
1 | > 20 | 104 | > 20 | > 20 | > 20 | > 20 | > 50 | – | CS(=O)(=O)CC(=O)Nc1c(-c2ccc(Cl)cn2)nn2c1C(=O)N[C@]1(CCOc3cc(F)cc(F)c31)C2 [Compound I-151] | 25.8 | Negative (a case that Shifted IC was 1.0 or less was regarded as Negative)
2 | > 20 | 98.5 | > 20 | > 20 | > 20 | > 20 | – | 60.5 | CS(=O)(=O)CC(=O)Nc1c(-c2ccc(F)c(F)c2)nn2c1C(=O)N[C@@]1(CCc3cc(OCC(F)(F)F)ccc31)C2 [Compound I-33] | 21.3 | –
3 | > 20 | 105 | > 20 | > 20 | > 20 | > 20 | > 50 | – | CS(=O)(=O)CC(=O)Nc1c(-c2ccc(F)cc2)nn2c1C(=O)N[C@@]1(CCOc3cc(OCC(F)(F)F)ccc31)C2 [Compound I-66] | 14.6 | Negative (a case that Shifted IC was 1.0 or less was regarded as Negative)
4 | > 20 | 89.8 | > 20 | > 20 | > 20 | > 20 | > 50 | – | CS(=O)(=O)CC(=O)Nc1c(-c2ccc(Cl)cn2)nn2c1C(=O)N[C@]1(CCc3cc(F)cc(F)c31)C2 [Compound I-147] | 21.6 | Negative (a case that Shifted IC was 1.0 or less was regarded as Negative)
5 | > 20 | 106 | > 20 | > 20 | > 20 | > 20 | > 50 | 66.2 | CS(=O)(=O)CC(=O)Nc1c(-c2ccc(Cl)cn2)nn2c1C(=O)N[C@@]1(CCc3cc(F)cc(F)c31)C2 [Compound I-142] | 10.6 | –
6 | > 20 | 100 | > 20 | > 20 | > 20 | > 20 | > 50 | – | CS(=O)(=O)CC(=O)Nc1c(-c2ccc(F)c(F)c2)nn2c1C(=O)N[C@@]1(CCOc3cc(F)cc(F)c31)C2 [Compound I-126] | 14.2 | Negative (a case that Shifted IC was 1.0 or less was regarded as Negative)
7 | > 20 | 94.8 | > 20 | > 20 | > 20 | > 20 | > 50 | – | CS(=O)(=O)CC(=O)Nc1c(-c2ccc(F)c(F)c2)nn2c1C(=O)N[C@@]1(CCc3cc(F)cc(F)c31)C2 [Compound I-130] | 15.4 | Negative (a case that Shifted IC was 1.0 or less was regarded as Negative)
8 | – | 101 | – | – | – | – | > 50 | 49 | CS(=O)(=O)CC(=O)Nc1c(-c2ccc(Cl)cn2)nn2c1C(=O)N[C@@]1(CCOc3cc(F)cc(F)c31)C2 [Compound I-137] | 23.6 | –
